Columns and labels:
[1] = target: T1, human adenosine A1 receptor (Homo sapiens, UniProt P30542); experiment: Inhibition binding assay, human adenosine A1 receptor membranes, [3H]DPCPX; conditions: 1 nM [3H]DPCPX, 25° C., 1 h; IC50 converted to Ki with Cheng-Prusoff; read-out: A1 pKi (converted)
T1 construct: expressed in transfected cells; host or cells: HEK293 cells infected with BacMam (the same paragraph also labels the preparation CHO-hA1)
T1 sequence (P30542 1-326): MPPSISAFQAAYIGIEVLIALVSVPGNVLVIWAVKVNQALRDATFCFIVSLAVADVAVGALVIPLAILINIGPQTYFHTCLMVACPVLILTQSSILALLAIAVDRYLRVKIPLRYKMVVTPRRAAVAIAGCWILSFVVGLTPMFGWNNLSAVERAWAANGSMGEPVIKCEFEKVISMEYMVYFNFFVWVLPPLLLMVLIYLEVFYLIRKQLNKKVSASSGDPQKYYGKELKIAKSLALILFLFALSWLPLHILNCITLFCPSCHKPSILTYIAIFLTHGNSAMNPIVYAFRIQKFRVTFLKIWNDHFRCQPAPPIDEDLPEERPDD
In short: (§1)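 Membranes from BacMam-infected HEK293 cells (0.2 μg A2A, 1.4 μg A1) incubated 1 h at 25° C with test compound and 1 nM [3H]ZM241385 (A2A; 50 mM Tris-HCl pH 7.4) or [3H]DPCPX (A1; plus 100 mM NaCl, 10 mM MgCl2). Nonspecific: 1 μM CGS15943 or DPCPX. Filtration, scintillation; IC50 converted to Ki via Cheng-Prusoff.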

[2] = target: T2, human adenosine A2A receptor (Homo sapiens, UniProt P29274); experiment: Inhibition binding assay, human adenosine A2A receptor membranes, [3H]ZM241385; conditions: 1 nM [3H]ZM241385, HEK293-hA2A membranes, 25° C., 1 h; IC50 converted to Ki with Cheng-Prusoff; read-out: A2A pKi (converted)
T2 construct: expressed in transfected cells; host or cells: HEK293 cells infected with BacMam
In short: as §1

T2 sequence (P29274 whole entry): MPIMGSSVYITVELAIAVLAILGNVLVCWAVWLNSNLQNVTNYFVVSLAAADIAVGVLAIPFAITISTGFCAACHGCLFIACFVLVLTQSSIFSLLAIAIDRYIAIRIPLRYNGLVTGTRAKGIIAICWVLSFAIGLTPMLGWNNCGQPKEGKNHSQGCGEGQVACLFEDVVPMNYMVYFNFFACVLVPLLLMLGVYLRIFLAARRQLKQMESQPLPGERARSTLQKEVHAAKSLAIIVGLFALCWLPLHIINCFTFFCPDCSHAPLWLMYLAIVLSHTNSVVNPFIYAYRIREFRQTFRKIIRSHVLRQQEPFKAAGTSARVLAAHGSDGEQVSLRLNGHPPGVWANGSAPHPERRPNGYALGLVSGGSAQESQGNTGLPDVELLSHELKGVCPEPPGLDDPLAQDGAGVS

**Q.** Which Ki [1] does the source give for `Cc1cc(-c2c(-c3ccccc3)nc(N)n3c(=O)n(CCc4ccc(F)cc4)nc23)cc(C)n1` [Example 1-83, 5-amino-8-(2,6-dimethyl-4-pyridyl)-2-[2-(4-fluorophenyl)ethyl]-7-phenyl-[1,2,4]triazolo[4,3-c]pyrimidin-3-one] here?
**A.** Its Ki is 251 nM.

**Q.** And the Ki [2]?
**A.** Its Ki is 20 nM.

**Q.** How did the Ki [1] turn out when `COC(=O)CCn1nc2c(-c3cc(C)nc(C)c3)c(-c3ccccc3)nc(N)n2c1=O` [Example 2-15, methyl 3-[5-amino-8-(2,6-dimethyl-4-pyridyl)-3-oxo-7-phenyl-[1,2,4]triazolo[4,3-c]pyrimidin-2-yl]propanoate] was run?
**A.** Its Ki is 501 nM.

**Q.** And the Ki [2]?
**A.** The Ki was 5.01 nM.

**Q.** What does the source list for `Cc1cc(-c2c(-c3ccccc3)nc(N)n3c(=O)n(Cc4ccc(Cl)cn4)nc23)cc(CO)n1` [Example 1-55, 5-amino-2-[(5-chloro-2-pyridyl)methyl]-8-[2-(hydroxymethyl)-6-methyl-4-pyridyl]-7-phenyl-[1,2,4]triazolo[4,3-c]pyrimidin-3-one]?
**A.** Ki [1]: 501 nM; Ki [2]: 1.58 nM

**Q.** For `CCOC(=O)NCCn1nc2c(-c3cc(C)nc(C)c3)c(-c3ccccc3)nc(N)n2c1=O` [Example 2-12, ethyl N-[2-[5-amino-8-(2,6-dimethyl-4-pyridyl)-3-oxo-7-phenyl-[1,2,4]triazolo[4,3-c]pyrimidin-2-yl]ethyl]carbamate], which Ki [1] is on record?
**A.** Its Ki is 501 nM.

**Q.** What about the Ki [2] of the same compound?
**A.** The Ki was 10 nM.

**Q.** Which Ki [1] does the source give for `Cc1cc(-c2c(-c3ccccc3)nc(N)n3c(=O)n(Cc4ccc(F)cn4)nc23)cc(O)n1` [Example 1-74, 5-amino-2-[(5-fluoro-2-pyridyl)methyl]-8-(2-hydroxy-6-methyl-4-pyridyl)-7-phenyl-[1,2,4]triazolo[4,3-c]pyrimidin-3-one] here?
**A.** The Ki was greater than 3160 nM.

**Q.** And the Ki [2]?
**A.** The Ki was 316 nM.

**Q.** With `COC(=O)c1nc(N)n2c(=O)n(CCC(F)(F)F)nc2c1-c1cc(C)nc(C)c1` [Example 3-6, methyl 5-amino-8-(2,6-dimethyl-4-pyridyl)-3-oxo-2-(3,3,3-trifluoropropyl)-[1,2,4]triazolo[4,3-c]pyrimidine-7-carboxylate] as the compound, how does the Ki [1] read?
**A.** Its Ki is greater than 3160 nM.

**Q.** What about the Ki [2] of the same compound?
**A.** The Ki was 200 nM.

**Q.** With `Cc1cc(-c2c(-c3ccccc3)nc(N)n3c(=O)n(C(C)c4cc(F)ccc4F)nc23)cc(C)n1` (stereo not drawn) [Example 1-15, 5-amino-2-[1-(2,5-difluorophenyl)ethyl]-8-(2,6-dimethyl-4-pyridyl)-7-phenyl-[1,2,4]triazolo[4,3-c]pyrimidin-3-one] as the compound, how does the Ki [1] read?
**A.** The Ki was 79.4 nM.

**Q.** What about the Ki [2] of the same compound?
**A.** The Ki was 1.58 nM.

**Q.** With `Cc1cc(-c2c(-c3ccccc3)nc(N)n3c(=O)n(Cc4cccnn4)nc23)cc(C)[n+]1[O-]` [Example 1-43, 5-amino-8-(2,6-dimethyl-1-oxido-pyridin-1-ium-4-yl)-7-phenyl-2-(pyridazin-3-ylmethyl)-[1,2,4]triazolo[4,3-c]pyrimidin-3-one] as the compound, how does the Ki [1] read?
**A.** The Ki was 316 nM.

**Q.** What about the Ki [2] of the same compound?
**A.** The Ki was 31.6 nM.

**Q.** How did the Ki [1] turn out when `Cc1cc(-c2c(-c3ccccc3)nc(N)n3c(=O)n(CCO)nc23)cc(C)n1` [Example 2-7, 5-amino-8-(2,6-dimethyl-4-pyridyl)-2-(2-hydroxyethyl)-7-phenyl-[1,2,4]triazolo[4,3-c]pyrimidin-3-one] was run?
**A.** Its Ki is 1000 nM.

**Q.** What about the Ki [2] of the same compound?
**A.** The Ki was 100 nM.

**Q.** With `COc1ccc(Cn2nc3c(-c4cc(C)nc(Cl)c4)c(-c4ccccc4)nc(N)n3c2=O)nc1` [Example 1-77, 5-amino-8-(2-chloro-6-methyl-4-pyridyl)-2-[(5-methoxy-2-pyridyl)methyl]-7-phenyl-[1,2,4]triazolo[4,3-c]pyrimidin-3-one] as the compound, how does the Ki [1] read?
**A.** Its Ki is 200 nM.

**Q.** And the Ki [2]?
**A.** Its Ki is 0.398 nM.

**Q.** Which results are given for `COc1cc(-c2c(-c3ccccc3)nc(N)n3c(=O)n(Cc4ccc(C)cn4)nc23)cc(CO)n1` [Example 1-66, 5-amino-8-[2-(hydroxymethyl)-6-methoxy-4-pyridyl]-2-[(5-methyl-2-pyridyl)methyl]-7-phenyl-[1,2,4]triazolo[4,3-c]pyrimidin-3-one]?
**A.** Ki [1]: 501 nM; Ki [2]: 0.631 nM

**Q.** Which results are given for `COc1cc(C)nc(Cn2nc3c(-c4cc(C)nc(C)c4)c(-c4ccccc4)nc(N)n3c2=O)c1` [Example 1-29, 5-amino-8-(2,6-dimethyl-4-pyridyl)-2-[(4-methoxy-6-methyl-2-pyridyl)methyl]-7-phenyl-[1,2,4]triazolo[4,3-c]pyrimidin-3-one]?
**A.** Ki [1]: 12.6 nM; Ki [2]: 0.501 nM

From patent US12528815B2, “5-amino-8-(4-pyridyl)-[1,2,4]triazolo[4,3-c]pyrimidin-3-one compounds for use against cancer” (Nxera Pharma UK Limited, priority 2020, dated 2026)
